Test results taken from patent US8673938B2, “Chemical compounds” (priority 2006, dated 2014).
pIC50: −log10 of the molar value.

biological target: T1, human 11βHSD1 enzyme (Homo sapiens (Human), UniProt P28845); test: not given; conditions: not given
T1 sequence (P28845 whole entry): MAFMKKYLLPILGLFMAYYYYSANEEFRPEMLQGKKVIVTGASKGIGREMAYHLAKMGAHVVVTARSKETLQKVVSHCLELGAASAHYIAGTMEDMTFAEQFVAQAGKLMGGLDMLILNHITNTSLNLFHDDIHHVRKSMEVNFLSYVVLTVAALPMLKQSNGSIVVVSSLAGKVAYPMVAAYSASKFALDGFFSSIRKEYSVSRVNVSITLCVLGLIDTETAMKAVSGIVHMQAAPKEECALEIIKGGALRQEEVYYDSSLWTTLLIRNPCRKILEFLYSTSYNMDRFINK

Compound | pIC50
CCCSc1nc(N2CCC[C@@H](CC(=O)O)C2)ccc1C(=O)NC1CCCCC1 [Example 7, 2-[(3S)-1-[5-(cyclohexylcarbamoyl)-6-propylsulfanyl-pyridin-2-yl]-3-piperidyl]acetic acid] | 8.15

same assay, conditions: repeat assays

Compound | 50% inhibition of the enzyme achieved
O=C(O)C[C@@H]1CCCN(c2ccc(C(=O)NC3C4CC5CC(C4)CC3C5)cn2)C1 (stereo partly drawn) [2-[(3S)-1-[5-(2-adamantylcarbamoyl)pyridin-2-yl]-3-piperidyl]acetic acid] | achieved 50% inhibition in one assay, but in a subsequent 3 assays did not

same assay, conditions: test concentration of 30 μM of compound

Compound | % inhibition of human 11-βHSD
Cc1nc(N2CCC[C@@H](CC(=O)O)C2)ccc1C(=O)NC12CC3CC(CC(C3)C1)C2 [compound 160] | 80%
O=C(O)C[C@@H]1CCCN(c2ccc(C(=O)N[C@H]3C4CC5CC3C[C@@](O)(C5)C4)c(SCc3ccccc3)n2)C1 [compound 107] | 90%
O=C(O)C[C@@H]1CCCN(c2ccc(C(=O)NC3C4CC5CC(C4)CC3C5)c(C3CC3)n2)C1 (some centres unmarked) [compound 166] | 95%
O=C(O)C[C@@H]1CCCN(c2ccc(C(=O)NC3CCCCC3)c(N3CCOCC3)n2)C1 [compound 156] | 78%
O=C(O)C[C@@H]1CCCN(c2ccc(C(=O)NC3CCCCC3)c(C3CC3)n2)C1 [compound 165] | 95%
O=C(O)C[C@@H]1CCCN(c2ccc(C(=O)NC3C4CC5CC3CC(O)(C5)C4)c(SCCc3ccccc3)n2)C1 (some centres unmarked) [compound 108] | 88%
Cc1nc(N2CCC[C@@H](CC(=O)O)C2)ccc1C(=O)NC1CCCCC1 [compound 159] | 55%
O=C(O)C[C@@H]1CCCN(c2ccc(C(=O)N[C@H]3C4CC5CC3C[C@@](O)(C5)C4)c(C3CC3)n2)C1 [compound 167] | 95%
Cc1nc(N2CCC[C@@H](CC(=O)O)C2)ccc1C(=O)NC1C2CC3CC(C2)CC1C3 (some centres unmarked) [compound 161] | 84%
O=C(O)C[C@@H]1CCCN(c2ccc(C(=O)NC3CCCCC3)c(N3CCCC3)n2)C1 [compound 155] | 94%
O=C(O)C[C@@H]1CCCN(c2ccc(C(=O)NC3CCCCC3)cn2)C1 [compound 133] | 58%

biological target: T1, human 11βHSD1 enzyme; test: biochemical; conditions: read-out: % inhibition of human 11-βHSD
Procedure: The evaluation of compounds described herein was carried out using a baculovirus expressed N terminal 6-His tagged full length human 11βHSD1 enzyme(*1). […] Inhibitors of 11βHSD1 reduce the conversion of cortisone to cortisol, which is identified by an increase in signal, in the above assay.
Compounds to be tested were dissolved in dimethyl sulphoxide (DMSO) to 10 mM and diluted further in assay buffer containing 1% DMSO to 10 fold the final assay concentration. Diluted compounds were then plated into black 384 well plates (Matrix, Hudson N.H., USA).
The assay plates were incubated for 25 minutes at 37° C. after which time the reaction was stopped by the addition of 10 μl of 0.5 mM glycerrhetinic acid plus conjugated cortisol (XL665 or D2). 10 μl of anti-cortisol Cryptate was then added and the plates sealed and incubated for 6 hours at room temperature.

Compound | inhibition at 30 µM
CCCSc1nc(N2CCC[C@@H](CC(=O)O)C2)ccc1C(=O)NC1CCCCC1 [Example 7, 2-[(3S)-1-[5-(cyclohexylcarbamoyl)-6-propylsulfanyl-pyridin-2-yl]-3-piperidyl]acetic acid] | 87%
CCCSc1nc(N2CCC(C(=O)O)C2)ccc1C(=O)N[C@H]1C2CC3CC1C[C@](OC(F)F)(C3)C2 (stereo partly drawn) [Example 185, 1-[5-[[(2r,5S)-5-(difluoromethoxy)-2-adamantyl]carbamoyl]-6-propylsulfanyl-pyridin-2-yl]pyrrolidine-3-carboxylic acid] | 97%
CCCSc1nc(N2CCC[C@@H](CC(=O)O)C2)ccc1C(=O)N(CC)C1CCCCC1 [Example 123, 2-[(3S)-1-[5-(cyclohexyl-ethyl-carbamoyl)-6-propylsulfanyl-pyridin-2-yl]-3-piperidyl]acetic acid] | 94%
CCCSc1nc(N2CCC(C3(C(=O)O)CCC3)CC2)ccc1C(=O)NC1CCCCC1 [Example 49, 1-[1-[5-(cyclohexylcarbamoyl)-6-propylsulfanyl-pyridin-2-yl]-4-piperidyl]cyclobutane-1-carboxylic acid] | 77%
CCCSc1nc(Sc2ccc(C(=O)O)cc2)ccc1C(=O)NC1CCCCC1 [Example 15, 4-[5-(cyclohexylcarbamoyl)-6-propylsulfanyl-pyridin-2-yl]sulfanylbenzoic acid] | 73%
COc1nc(N2CCC[C@@H](CC(=O)O)C2)ccc1C(=O)NC1CCCCC1 [compound 139, 2-[(3S)-1-[5-(cyclohexyl-carbamoyl)-6-methoxy-pyridin-2-yl]-3-piperidyl] acetic acid] | 89%
O=C(N[C@H]1C2CC3CC1C[C@@](O)(C3)C2)c1ccc(N2CCC[C@H]2C(=O)O)nc1SC1CCCC1 [Example 97, (2S)-1-[6-cyclopentylsulfanyl-5-[((2r,5s)-5-hydroxy-2-adamantyl)carbamoyl]pyridin-2-yl]pyrrolidine-2-carboxylic acid] | 97%
O=C(O)C[C@@H]1CCCN(c2ccc(C(=O)NC3CCCCC3)c(SCCc3cccnc3)n2)C1 [compound 131, 2-[(3S)-1-[5-(cyclohexyl-carbamoyl)-6-(2-pyridin-3-ylethylsulfanyl)pyridin-2-yl]-3-piperidyl] acetic acid] | 91%
CSc1nc(N2CC[C@@H](C(=O)O)C2)ccc1C(=O)NC1C2CC3CC(C2)CC1C3 (stereo partly drawn) [Example 77, (3R)-1-[5-(2-adamantylcarbamoyl)-6-methylsulfanyl-pyridin-2-yl]pyrrolidine-3-carboxylic acid] | 99%
CCCSc1nc(NCC2CCC(C(=O)O)CC2)ccc1C(=O)N[C@H]1C2CC3CC1C[C@](O)(C3)C2 (some centres unmarked) [Example 80, 4-[[[5-[((2r,5s)-5-hydroxy-2-adamantyl)carbamoyl]-6-propylsulfanyl-pyridin-2-yl]amino]methyl]cyclohexane-1-carboxylic acid] | 94%
CCCSc1nc(N2CCC[C@@H](CC(=O)O)C2)ccc1C(=O)N(C(C)C)C1CCCCC1 [Example 124, 2-[(3S)-1-[5-(cyclohexyl-propan-2-yl-carbamoyl)-6-propylsulfanyl-pyridin-2-yl]-3-piperidyl]acetic acid] | 92%
O=C(O)C[C@H]1CCCN(c2ccc(C(=O)NC3CCCCC3)c(SC3CCCC3)n2)C1 [Example 55, 2-[(3R)-1-[5-(cyclohexylcarbamoyl)-6-cyclopentylsulfanyl-pyridin-2-yl]-3-piperidyl]acetic acid] | 89%
O=C(O)C[C@@H]1CCCN(c2ccc(C(=O)NC3CCCCC3)c(N3CCN(C(=O)OCc4ccccc4)CC3)n2)C1 [compound 150, 2-[(3S)-1-[5-(cyclohexylcarbamoyl)-6-(4-phenylmethoxy-carbonylpiperazin-1-yl)pyridin-2-yl]-3-piperidyl]acetic acid] | 74%
CCCSc1nc(N2CCC(OCC(=O)O)C2)ccc1C(=O)NC1CCCCC1 (centres unmarked) [Example 43, 2-[1-[5-(cyclohexylcarbamoyl)-6-propylsulfanyl-pyridin-2-yl]pyrrolidin-3-yl]oxyacetic acid] | 92%
CCCSc1nc(N2CCN(CC(=O)O)CC2)ccc1C(=O)NC1CCCCC1 [Example 8, 2-[4-[5-(cyclohexylcarbamoyl)-6-propylsulfanyl-pyridin-2-yl]piperazin-1-yl]acetic acid] | 78%
O=C(O)C[C@@H]1CCCN(c2ccc(C(=O)N[C@H]3C4CC5CC3C[C@](OC(F)F)(C5)C4)c(SC3CCCC3)n2)C1 [Example 178, 2-[(3S)-1-[6-Cyclopentylsulfanyl-5-[[(2r,5s)-5-(difluoromethoxy)-2-adamantyl]carbamoyl]pyridin-2-yl]-3-piperidyl]acetic acid] | 93%
O=C(N[C@H]1C2CC3CC1C[C@](O)(C3)C2)c1ccc(N2CC[C@@H](C(=O)O)C2)nc1SC1CCCC1 [Example 96, (3R)-1-[6-cyclopentylsulfanyl-5-[((2r,5s)-5-hydroxy-2-adamantyl)carbamoyl]pyridin-2-yl]pyrrolidine-3-carboxylic acid] | 88%
CCCNc1nc(N2CCC[C@@H](CC(=O)O)C2)ccc1C(=O)N(C)C1CCCCC1 [compound 157, 2-[(3S)-1-[5-(cyclohexyl-methyl-carbamoyl)-6-propylamino-pyridin-2-yl]-3-piperidyl]acetic acid] | 91%
CCCSc1nc(N2CCC[C@H](CC(=O)O)C2)ccc1C(=O)N(C)C1CCCCC1 [Example 168, 2-[(3R)-1-[5-(Cyclohexyl-methyl-carbamoyl)-6-propylsulfanyl-pyridin-2-yl]-3-piperidyl]acetic acid] | 108%
CCCSc1nc(N2C[C@@H]3[C@H](C2)[C@H]3C(=O)O)ccc1C(=O)NC1C2CC3CC(C2)CC1C3 (stereo partly drawn) [Example 66, (1S,5R)-3-[5-(2-adamantylcarbamoyl)-6-propylsulfanylpyridin-2-yl]-3-azabicyclo[3.1.0]hexane-6-carboxylic acid] | 89%
CCCSc1nc(N2CCC(C(=O)O)C2)ccc1C(=O)N[C@H]1C2CC3CC1C[C@@](O)(C3)C2 (some centres unmarked) [Example 89, 1-[5-[[(2r,5s)-5-hydroxy-2-adamantyl]carbamoyl]-6-propylsulfanyl-pyridin-2-yl]pyrrolidine-3-carboxylic acid] | 85%
O=C(O)C[C@@H]1CCCN(c2ccc(C(=O)NC3CCCCC3)c(N3CCC(c4ccc(F)cc4)C3)n2)C1 (stereo partly drawn) [compound 143, 2-[(3S)-1-[5-(cyclohexylcarbamoyl)-6-[3-(4-fluorophenyl)pyrrolidin-1-yl]pyridin-2-yl]-3-piperidyl]acetic acid] | 95%
O=C(O)C[C@@H]1CCCN(c2ccc(C(=O)NC3CCCCC3)c(OCCCc3ccccc3)n2)C1 [compound 137, 2-[(3S)-1-[5-(cyclohexyl-carbamoyl)-6-(3-phenylpropoxy)pyridin-2-yl]-3-piperidyl] acetic acid] | 99%
O=C(O)CO[C@H]1CCN(c2ccc(C(=O)NC3C4CC5CC(C4)CC3C5)c(SC3CCCCC3)n2)C1 (stereo partly drawn) [Example 71, 2-[(3S)-l-[5-(2-adamantylcarbamoyl)-6-cyclohexylsulfanyl-pyridin-2-yl]pyrrolidin-3-yl]oxyacetic acid] | 92%
O=C(O)CO[C@@H]1CCN(c2ccc(C(=O)NC3C4CC5CC(C4)CC3C5)c(SC3CCCCC3)n2)C1 (stereo partly drawn) [Example 72, 2-[(3R)-1-[5-(2-adamantylcarbamoyl)-6-cyclohexylsulfanyl-pyridin-2-yl]pyrrolidin-3-yl]oxyacetic acid] | 84%
CCCSc1nc(N[C@H]2C3CC4CC2C[C@](C(=O)O)(C4)C3)ccc1C(=O)NC1CCCCC1 [Example 9, (3R,5S)-4-[[5-(cyclohexylcarbamoyl)-6-propylsulfanyl-pyridin-2-yl]amino]adamantane-1-carboxylic acid] | 92%
CCCSc1nc(N2CCCC(OC(C)(C)C(=O)O)C2)ccc1C(=O)NC1CCCCC1 (centres unmarked) [Example 45] | 85%
CCCSc1nc(N2CCC[C@H]2C(=O)O)ccc1C(=O)NC1CCCCC1 [Example 27, (2S)-1-[5-(cyclohexylcarbamoyl)-6-propylsulfanyl-pyridin-2-yl]pyrrolidine-2-carboxylic acid] | 94%
